Assay results taken from patent US20230201290A1, “TGF-BETA INHIBITION, AGENTS AND COMPOSITION THEREFOR” (GMP BIOTECHNOLOGY LIMITED, priority 2020, published 2023).

What was measured:
[1] = test system: patient derived autologous HGG cells; experiment: LAK cell-mediated autologous cytotoxicity (calcein-release assay); format: cell-based, human; conditions: untreated control 16%
Experimental: Human HGG cells were obtained from surgical specimens of 5 patients. PBMCs from these patients were activated with human recombinant IL-2 to generate lymphokine-activated killer (LAK) cells as effector cells, which are known to lyse most autologous and allogenic fresh human tumor cells. LAK cell-mediated cytotoxicity against the patient derived autologous HGG cells (target cells) was tested in a cell co-culture system using the calcein-release assay.

[2] = test system: malignant melanoma; experiment: Phase I/II study P001: patients with malignant melanoma; format: in vivo, human
[3] = test system: human PBMCs; experiment: Viability and proliferation of human PBMCs; format: cell-based
Experimental: Cell viability was assessed following treatment of human PBMCs with trabedersen in vitro using the Trypan blue exclusion test. Freshly isolated, IL-2 activated PBMCs from healthy donors and HGG patients were incubated either without trabedersen or with 1, 5, 10 or 80 μM trabedersen for 2, 3, 6, 7, 14, and 21 day. […] There was no difference in cell viability between untreated and trabedersen treated cells.

[4] = test system: TGF-β2 secretion; experiment: TGF-β2 secretion in human tumor cell lines; format: cell-based; conditions: human HGG cell line A-172, 7 days, 10 trabedersen (unit not given)
Experimental: The effect of trabedersen on TGF-β2 secretion was analyzed in cell lines of human HGG, human pancreatic carcinoma, malignant melanoma, colorectal carcinoma, and other tumors (prostate carcinoma, renal cell carcinoma, and non-small cell lung carcinoma). The TGF-β2 concentration in cell culture supernatants after treatment with trabedersen for 7 days was analyzed.
The biological activity of truncated trabedersen, i.e. metabolites, in comparison to full-length trabedersen with respect to inhibition of TGF-β2 secretion was tested in the human HGG cell line A-172.

[5] = test system: IL-6; conditions: data-mining of P001 cytokine profiling
[6] = Toxicology in monkeys (LOAEL); format: in vivo
[7] = test system: solid tumors; experiment: Phase I/II study P001, i.v. trabedersen: all patients, MTD and DLT; format: in vivo, human
From the text: P001 is a completed Phase I/II dose escalation study. Primary objective is the determination of the MTD as well as the DLT of 2 cycles as core treatment and up to 8 optional extension cycles of trabedersen administered i.v. for 4 or 7 d every other week, as described in the following. The study followed a classical cohort design with 3 evaluable patients per cohort. Patients treated with the 1st schedule received trabedersen continuously for 7 d, followed by a treatment-free interval of 7 d for each treatment cycle (7-d-on, 7-d-off). After the MTD had been reached for this schedule, a 2nd schedule of 4 d trabedersen administration, followed by a treatment-free interval of 10 d for each treatment cycle was started (4-d-on, 10-d-off). In this treatment schedule the MTD has not been reached.
Primary objective of the study is the determination of the maximum tolerated dose (MTD) as well as the dose limiting toxicity (DLT) of two cycles of Trabedersen administered every other week. Secondary objectives include safety and tolerability, pharmacokinetic profile and potential antitumor activity of intravenous Trabedersen treatment.
Trabedersen was administered as i.v. continuous infusion for 4 or 7 days every other week via an implanted subcutaneous port system connected to a portable pump and with a flow rate of 0.8 mL/h. The core treatment consisted of 2 treatment cycles. Up to 8 optional extension cycles were administered in case of clinical benefit.
The dose escalation followed a classical cohort design with at least 3 and up to 6 patients per cohort receiving Trabedersen. The starting dose was chosen based on the Lowest-Observed-Adverse-Effect Level (LOAEL) determined in monkeys as the most relevant species. […] The Data and Safety Monitoring Board (DSMB) regularly reviewed available safety and efficacy data before each escalation step. Generally, if patients of one cohort had tolerated the therapy, the next cohort received the next higher dose. Toxicity was assessed based on National Cancer Institute-Common Toxicity Criteria (NCI-CTC, version 2). A DLT was defined as an at least possibly related, medically important adverse event, of NCI-CTC grade 3 or 4, a worsening by ≥2 grades from baseline for renal or hepatic toxicities, a worsening by ≥3 grades from baseline for other laboratory parameters, or other toxicities considered dose-limiting by the investigator. If more than 2 patients of a cohort had DLTs, the next lower dose was defined as MTD. Dose-escalation had to be stopped if MTD was reached.
The overall survival is calculated for all patients as the survival time from the onset of treatment with study medication to death due to any cause and analyzed with the Kaplan-Meier method.
Altogether 33 patients with advanced pancreatic cancer, malignant melanoma, or colorectal cancer were enrolled for dose escalation (Table 15). Patients treated in the first treatment schedule received Trabedersen continuously for 7 days, followed by a treatment-free interval of 7 days for each treatment cycle (7-days-on, 7-days-off).
After the MTD had been reached in the 7-days-on, 7-days-off schedule, a second dose escalation was started using a modified treatment schedule with 4 days Trabedersen administration, followed by a treatment-free interval of 10 days for each treatment cycle (4-days-on, 10-days-off).

[8] = test system: SARS-CoV (Urbani strain)
[9] = 4-days-on, 10-days-off, 140 mg/m^2/day

cggcatgtct attttgta (antisense CGGCATGTCTATTTTGTA; chemistry not given here) [OT-101]
autologous cytotoxicity against human HGG cells, mean [1]: 40% | Survival ([2]; 4-days-on, 10-days-off schedule): 11.4 months | mOS ([2]; 4-days-on, 10-days-off, with subsequent therapies): 13.5 months | mOS ([2]; 4-days-on, 10-days-off, without subsequent therapies): 6.0 months | Survival ([2]; 7-days-on, 7-days-off schedule): 7.8 months | mOS ([2]; 14 additional patients, 140 mg/m^2/day, 4-days-on, 10-days-off): 10.4 months | mOS ([2]; all melanoma patients independent of dose and schedule): 11.4 months | mOS ([2]; last cohort 140 mg/m2/day, followed by subsequent therapy): 13.5 months | mOS ([2]; last cohort 140 mg/m2/day, no subsequent therapy): 6.0 months | mOS ([2]; melanoma patients of dose escalation): 13.8 months | mOS ([2]; two patients, 2nd-line, 140 mg/m^2/day 4-on/10-off): 9.5 months | PBMC proliferation, of untreated control cells ([3]; 80 μM, 7 days): 67% | effects on the viability of PBMCs ([3]; 1, 5, 10 or 80 μM, up to 21 day, Trypan blue): No relevant effects | Proliferation of PBMCs ([3]; 5, 10 or 50μM): within the range of variation | highest inhibitory effect on TGF-β2 secretion [4]: 64% | signal of cytokine storm following treatment [5]: no signal of cytokine storm | Lowest-Observed-Adverse-Effect Level (LOAEL), equivalent in human adults [6]: 48 mg/m^2/day | Dose limiting toxicities (NCI-CTC grade) [7, 9]: — 1 gastrointestinal bleeding (3) | Median Overall Survival, All patients [7, 9]: 14.5 months | Median Overall Survival, All patients ([7]; 4-days-on, 10-days-off, 140 mg/m^2/day (additional patients)): 6.0^2 months | Median Overall Survival, All patients ([7]; 4-days-on, 10-days-off, 190 mg/m^2/day): 9.3 months | Median Overall Survival, All patients ([7]; 4-days-on, 10-days-off, 250 mg/m^2/day): 9.8 months | Median Overall Survival, All patients ([7]; 4-days-on, 10-days-off, 330 mg/m^2/day): 3.0 months | MTD ([7]; 4-days-on, 10-days-off, 140 to 330 mg/m^2/day): without reaching an MTD | MTD ([7]; 7-days-on, 7-days-off schedule): 160 mg/m^2/day | Median Overall Survival, All patients ([7]; 7-days-on, 7-days-off, 40 mg/m^2/day): 6.9 months | Median Overall Survival, All patients ([7]; 7-days-on, 7-days-off, 80 mg/m^2/day): 9.2 months | Median Overall Survival, All patients ([7]; 7-days-on, 7-days-off, 160 mg/m^2/day): 2.9 months | Median Overall Survival, All patients ([7]; 7-days-on, 7-days-off, 240 mg/m^2/day): 6.5 months | Dose limiting toxicities (NCI-CTC grade) ([7]; 7-days-on, 7-days-off, 240 mg/m^2/day, listed as Trabedersen): 2 thrombocytopenias, 1 exanthema and — 1 exanthema (3) and — 2 thrombocytopenias (3) | EC50: 50% effective antiviral concentration ([8]; SARS-CoV (Urbani strain), Vero 76, CPE neutral red, day 5): 7.6 µg/mL | SI (CC50/EC50) ([8]; SARS-CoV, Vero 76 cells): >38
